In patent US3954793A, “1-(2-Propynyl)-1 H-indazole compounds” (priority 1973, dated 1976):

Experiments:
[1] = system: IN/WHO strain house flies; assay: topical application, percent kill after 24 hours, susceptible IN/WHO strain; format: in vivo, female); conditions: for percent kill after 24 hours, synergist alone: insecticide 0, synergist 1 μg/fly
Method in brief: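 Insecticide plus synergist in acetone, 1.0 μl applied to the thorax of CO2-anesthetized 3-to-5-day-old female IN/WHO house flies, doses in μg/fly. Flies held 10 per dish, 3-5 dishes per treatment, with skim milk. Percent mortality scored after 24 h.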

[2] = system: Rutgers A strain house flies; assay: topical application, percent kill after 24 hours, resistant Rutgers A strain; format: in vivo, female); conditions: for percent kill after 24 hours, with GS 13005: GS 13005 1.0 + synergist 5.0 μg/fly
Method in brief: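 Synergist plus mobam, Diazinon or GS 13005 dissolved in acetone, applied as 1.0 μl to the thorax of CO2-anaesthetised 3-to-5 day old female Rutgers A (resistant) house flies; doses in μg/fly. Flies held 10 per dish, 3-5 dishes per treatment, with skim milk; mortality scored at 24 h.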

[3] = system: male mice; assay: extension of sleeping time of depressant drugs by synergists; format: in vivo, male mice (Swiss albino white); conditions: for Mean Sleeping Time, Noludar / Relative Sleeping Time, Noludar: Noludar 110 mg/kg; for Relative Sleeping Time, Noludar / Relative Sleeping Time, Secobarbital: treated/control; for Mean Sleeping Time, Secobarbital / Relative Sleeping Time, Secobarbital: Secobarbital 37 mg/kg
Method in brief: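 Swiss albino male mice (~38 days, 25-30 g) given synergist at 74.0 or 110.0 mg/kg in corn oil 1 h before Secobarbital 37.0 mg/kg or Noludar 110.0 mg/kg in water. Sleeping time measured from drug dosing to righting-reflex recovery; relative sleeping time = treated ÷ drug-only control.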

[4] = Diazinon 0.03 + synergist 0.15 μg/fly
[5] = GS 13005 0.10 + synergist 0.50 μg/fly
[6] = Mobam 0.05 + synergist 0.25 μg/fly
[7] = Mobam 0.10 + synergist 0.50 μg/fly
[8] = Mobam 0.20 + synergist 1 μg/fly
[9] = Diazinon 1.0 + synergist 3.0 μg/fly
[10] = Diazinon 3.0 + synergist 3.0 μg/fly
[11] = Mobam 0.30 + synergist 1.5 μg/fly
[12] = insecticide 0, synergist 5.0 μg/fly
[13] = synergist 110 mg/kg one hour prior
[14] = synergist 74 mg/kg one hour prior
[15] = Diazinon 1.5 + synergist 7.5 μg/fly
[16] = Mobam 0.15 + synergist 0.75 μg/fly
[17] = Mobam 0.60 + synergist 3.0 μg/fly
[18] = insecticide 0, synergist 7.5 μg/fly
[19] = Diazinon 3.0 + synergist 15 μg/fly
[20] = insecticide 0, synergist 15 μg/fly
[21] = Mobam 0.13 μg/fly, synergist/insecticide 0.5/1
[22] = Mobam 0.13 μg/fly, synergist/insecticide 1/1
[23] = Mobam 0.13 μg/fly, synergist/insecticide 5/1
[24] = Mobam 0.25 μg/fly, synergist/insecticide 0.5/1
[25] = Mobam 0.25 μg/fly, synergist/insecticide 1/1
[26] = Mobam 0.25 μg/fly, synergist/insecticide 2/1
[27] = Mobam 0.25 μg/fly, synergist/insecticide 5/1
[28] = Mobam 0.50 μg/fly, synergist/insecticide 0.5/1
[29] = Mobam 0.50 μg/fly, synergist/insecticide 1/1
[30] = Mobam 0.50 μg/fly, synergist/insecticide 2/1
[31] = Mobam 0.50 μg/fly, synergist/insecticide 5/1
[32] = Mobam 1.0 μg/fly, synergist/insecticide 0.5/1
[33] = Mobam 1.0 μg/fly, synergist/insecticide 1/1
[34] = Mobam 1.0 μg/fly, synergist/insecticide 2/1
[35] = Mobam 1.0 μg/fly, synergist/insecticide 5/1
[36] = Mobam 0.13 μg/fly, synergist/insecticide 2/1

| Compound | percent kill after 24 hours, with Diazinon [1, 4] | percent kill after 24 hours, with GS 13005 [1, 5] | percent kill after 24 hours, with Mobam [1, 6] | percent kill after 24 hours, with Mobam [1, 7] | percent kill after 24 hours, with Mobam [1, 8] | percent kill after 24 hours, synergist alone [1] | percent kill after 24 hours, with GS 13005 [2] | percent kill after 24 hours, with Mobam [2, 11] | percent kill after 24 hours, synergist alone [2, 12] | Mean Sleeping Time, Noludar [3, 13] | Relative Sleeping Time, Noludar ([3]; synergist 110 mg/kg) | Mean Sleeping Time, Secobarbital [3, 14] | Relative Sleeping Time, Secobarbital ([3]; synergist 74 mg/kg) | Mean Sleeping Time, Secobarbital [3, 13] | Relative Sleeping Time, Secobarbital ([3]; synergist 110 mg/kg) | percent kill after 24 hours, with Diazinon [2, 15] | percent kill after 24 hours, with Mobam [2, 17] | percent kill after 24 hours, synergist alone [2, 18] | percent mortality 24 hours, with Mobam [1, 21] | percent mortality 24 hours, with Mobam [1, 22] | further results |
| --- | --- | --- | --- | --- | --- | --- | --- | --- | --- | --- | --- | --- | --- | --- | --- | --- | --- | --- | --- | --- | --- |
| C#CCON=Cc1cccc([N+](=O)[O-])c1 [I-B] | 22% | 73% | 0% | 0% | 73% | 0% | 100% | 40% | 0% | 70 min | 2.4 | 54 min | 1.5 | 106 min | 1.7 |  |  |  |  |  | percent kill after 24 hours, with GS 13005 ([1]; GS 13005 0.05 + synergist 0.25 μg/fly): 2%; percent kill after 24 hours, with GS 13005 ([1]; GS 13005 0.10 + synergist 0.125 μg/fly): 13%; percent kill after 24 hours, with GS 13005 ([1]; GS 13005 0.10 + synergist 0.25 μg/fly): 27%; percent kill after 24 hours, with Mobam ([1]; Mobam 0.20 + synergist 0.25 μg/fly): 13%; percent kill after 24 hours, with Mobam ([1]; Mobam 0.20 + synergist 0.50 μg/fly): 30%; percent kill after 24 hours, with Diazinon [2, 9]: 5%; percent kill after 24 hours, with Diazinon [2, 10]: 90% |
| C#CCON=C(C)c1ccc(Cl)cc1 [I-D] | 50% |  | 8% | 20% | 92% | 0% |  | 95% |  | 58 min | 1.5 | 62 min | 1.9 | 56 min | 1.7 | 69% | 100% | 0% |  |  | percent kill after 24 hours, with Mobam [2, 16]: 19% |
| C#CCON=C(C)c1ccc2ccccc2c1 [I-F] | 24% | 45% |  |  | 47% | 0% | 95% | 38% | 0% | 55 min | 1.4 | 32 min | 1.1 | 70 min | 2.2 |  |  |  |  |  | percent kill after 24 hours, with Diazinon [2, 9]: 5%; percent kill after 24 hours, with Diazinon [2, 10]: 95% |
| C#CCON=Cc1ccc(Cl)cc1Cl [I-G] |  |  |  |  |  | 0% |  |  |  | 48 min | 1.2 | 27 min | 1.0 | 55 min | 1.7 | 60% |  | 0% |  |  | percent kill after 24 hours, with Diazinon ([1]; Diazinon 0.02 + synergist 0.10 μg/fly): 40%; percent kill after 24 hours, with Diazinon [2, 19]: 100%; percent kill after 24 hours, synergist alone [2, 20]: 0% |
| C#CCON=Cc1cccc2ccccc12 [I-I] |  |  |  |  |  |  |  |  |  | 62 min | 2.1 | 31 min | 1.1 | 102 min | 1.7 | 0% |  | 0% |  |  | percent kill after 24 hours, with Diazinon [2, 19]: 53%; percent kill after 24 hours, synergist alone [2, 20]: 0% |
| C#CCOCc1ccc(Cl)c(Cl)c1 [II-C] | 23% |  | 4% | 27% | 99% | 0% |  | 20% |  | 50 min | 1.3 |  |  | 33 min | 1.0 |  | 67% | 0% |  |  |  |
| C#CCOCc1ccc(Cl)c(Cl)c1Cl [II-D] | 40% |  | 10% | 50% | 100% | 0% |  |  |  | 46 min | 1.0 |  |  | 60 min | 1.2 |  | 92% | 0% | 7% | 17% | percent mortality 24 hours, with Mobam [1, 23]: 50%; percent mortality 24 hours, with Mobam [1, 24]: 30%; percent mortality 24 hours, with Mobam [1, 25]: 63%; percent mortality 24 hours, with Mobam [1, 26]: 83%; percent mortality 24 hours, with Mobam [1, 27]: 97%; percent mortality 24 hours, with Mobam [1, 28]: 57%; percent mortality 24 hours, with Mobam [1, 29]: 100%; percent mortality 24 hours, with Mobam [1, 30]: 97%; percent mortality 24 hours, with Mobam [1, 31]: 100%; percent mortality 24 hours, with Mobam [1, 32]: 97%; percent mortality 24 hours, with Mobam [1, 33]: 100%; percent mortality 24 hours, with Mobam [1, 34]: 100%; percent mortality 24 hours, with Mobam [1, 35]: 100% |
| C#CCOCc1c(Cl)ccc(Cl)c1Cl [II-E] | 45% |  | 5% | 33% | 100% | 0% |  | 70% |  | 45 min | 1.1 |  |  | 44 min | 1.4 |  | 99% | 0% | 30% | 27% | percent mortality 24 hours, with Mobam [1, 36]: 17%; percent mortality 24 hours, with Mobam [1, 23]: 40%; percent mortality 24 hours, with Mobam [1, 24]: 53%; percent mortality 24 hours, with Mobam [1, 25]: 77%; percent mortality 24 hours, with Mobam [1, 26]: 73%; percent mortality 24 hours, with Mobam [1, 27]: 67%; percent mortality 24 hours, with Mobam [1, 28]: 97%; percent mortality 24 hours, with Mobam [1, 29]: 97%; percent mortality 24 hours, with Mobam [1, 30]: 93%; percent mortality 24 hours, with Mobam [1, 31]: 100%; percent mortality 24 hours, with Mobam [1, 32]: 100%; percent mortality 24 hours, with Mobam [1, 33]: 100%; percent mortality 24 hours, with Mobam [1, 34]: 100%; percent mortality 24 hours, with Mobam [1, 35]: 100%; percent kill after 24 hours, with Mobam [2, 16]: 17% |
| C#CCOCc1cc(Cl)c(Cl)cc1Cl [II-F] |  |  |  |  |  |  |  |  |  | 38 min | 1.3 |  |  | 46 min | 1.0 |  |  |  | 3% | 10% | percent mortality 24 hours, with Mobam [1, 36]: 0%; percent mortality 24 hours, with Mobam [1, 23]: 23%; percent mortality 24 hours, with Mobam [1, 24]: 33%; percent mortality 24 hours, with Mobam [1, 25]: 57%; percent mortality 24 hours, with Mobam [1, 26]: 27%; percent mortality 24 hours, with Mobam [1, 27]: 73%; percent mortality 24 hours, with Mobam [1, 28]: 70%; percent mortality 24 hours, with Mobam [1, 29]: 83%; percent mortality 24 hours, with Mobam [1, 30]: 80%; percent mortality 24 hours, with Mobam [1, 31]: 97%; percent mortality 24 hours, with Mobam [1, 32]: 100%; percent mortality 24 hours, with Mobam [1, 33]: 93%; percent mortality 24 hours, with Mobam [1, 34]: 93%; percent mortality 24 hours, with Mobam [1, 35]: 100% |
| C#CCOCc1c(Cl)cccc1Cl [II-H] |  | 100% |  |  | 100% | 10% | 100% |  | 7% | 68 min | 2.2 | 44 min | 1.4 | 51 min | 2.1 |  |  |  |  |  | percent kill after 24 hours, synergist alone (GS 13005 part of Table XXXI) ([1]; GS 13005 0, synergist 1 μg/fly): 10%; percent kill after 24 hours, with Mobam ([2]; Mobam 0.40 + synergist 2.0 μg/fly): 100% |
